Consider three molecules from patent US20130324543A1, “REVERSAL OF HIGH BREAST CANCER RISK IN MAMMALS EXPOSED TO ESTROGENIC CHEMICALS IN UTERO BY ADULT EXPOSURE TO HDAC AND DNMT INHIBITORS” (Georgetown University, priority 2012, published 2013).

Entries after “also recorded” stand apart in the source; their conditions may differ.

The nature of data set [1]: Puberty onset (vaginal opening) of female mice exposed in utero. Particulars: female offspring, in utero exposure. It counts as in vivo, C57BL/6 mice. On the procedure:
To assess possible changes in sexual maturation due to in utero ECD exposures during embryogenesis, the day of puberty onset was recorded, as defined based on vaginal opening (VO) in female mice. The mice were examined once a day starting on PND 21. In sexually mature mice, the stage of estrus cycle was determined based on the cytology of their vaginal smear (sampled by pipetting 20 μl PBS in and out of vagina onto a slide) as judged under the microscope. Stage of estrus cycle was determined for each mouse before necropsy and sample collection.

For data set [2], the system named is mammary gland. The experiment in a line: Mammary gland morphology of in utero exposed mice (whole mounts). As to conditions: female mice, PND 27. It counts as in vivo, C57BL/6 mice. The protocol:
One of the two #4 abdominal mammary glands was dissected and fixed in Carnoy's fixative and processed into whole mounts as previously described (8). The other #4 abdominal gland was snap frozen in liquid nitrogen and stored in −80° C. for future analysis. One of the two thoracic #2-3 mammary glands was fixed in neutral buffered 10% formalin, embedded in paraffin and processed for histology using routine methods, and the other was snap frozen in liquid nitrogen, also stored in −80° C. for future analysis. Uterus was dissected, and one horn with the ovary and vagina attached was fixed in 10% formalin, embedded in paraffin and processed for histology, and the other horn and one ovary were frozen in liquid nitrogen and stored in −80° C.
To assess possible changes in mammary gland morphology, whole amounts of the 4th abdominal glands obtained on PND 27 were processed as previously described (4, 72). The total number of terminal end buds (TEBs) was counted. Identification of TEBs was based on the guidelines established by Russo and Russo (64). The total area (in pixels) of epithelium of the peripubertal (PND 27) mammary glands was analyzed by using ImageJ software (available through NIH web site) on digitized pictures of mammary whole mounts with ducts manually intensified black against white background (shown as an insert in FIG. 16). Ductal elongation (mammary epithelial outgrowth) on PND 50 was measured as the growth in millimeters from the end of the lymph node to the end of the epithelial tree. All the analyses were done blindly using an Olympus dissecting microscope.

Data set [3] is described as follows: Immediate adverse effects of dietary exposure in adult non-pregnant littermates of dams. It counts as in vivo, mice. As to conditions: last day of dietary exposure, data not shown. On the procedure:
For ethical reasons non-pregnant littermate females were used for blood collection instead of the dams, and the samples were taken on the last day of their dietary exposure. Blood was collected by heart puncture of anesthetized mice prior to euthanasia, and serum was separated by centrifugation (1000×g for 10 min) and stored frozen until hormone measurements.
In addition, possible immediate adverse effects of EE2, BPA and GEN exposure for adult mice were evaluated using the non-pregnant littermates of dams. Their body weights were recorded and the mammary gland morphology examined on the last day of their dietary exposure.

Data set [4] deals with mammary tumors. The experiment in a line: MPA/DMBA mammary tumorigenesis in mice exposed in utero to EE2, GEN or BPA (Example 5). Format: in vivo, C57BL/6 mice. From the text: (§1) Additions to the basic diet were as follows: 1) cornstarch [control]; 2) EE2 0.1 ppm; 3) BPA 0.155 ppm; 4) GEN 500 ppm.
Another data set deals with PcGTs. In words: Microarray expression of PcGTs in mammary glands of in utero E2 exposed rats. Format: in vivo. Particulars: PND 50.
The subject of data set [5] is mammary tumors. The experiment in a line: Acquired tamoxifen (TAM) resistance of mammary tumors in in utero exposed rats. As to conditions: 14-week follow-up, 7% in the control group. It counts as in vivo.
The subject of data set [6] is estrogen receptor alpha (ER-a). In words: ER-a methylation and expression in mammary glands of in utero E2 exposed rats. From the text:
A high in utero estrogenic environment increases the risk of developing breast cancer (FIG. 1). Increased risk is associated with greater epithelial cell proliferation and survival during mammary gland development, driven by persistent changes in the mammary transcriptome. How these transcriptional changes are initiated and maintained is unclear. […] We then determined whether estrogen receptor alpha (ER-a) is methylated in the E2 exposed rats. […] These mechanisms could include non-coding microRNAs (miRNAs) which are essential for early development and which inhibit expression of their target genes. Since several miRNAs are known to be suppressed by E2 in MCF-7 human breast cancer cells (Maillot et al. Cancer Res 2009), we determined whether persistent changes in miRNA expression may be seen in the adult mammary glands of rats exposed to E2 in utero. miRNAs were measured using applied Biosystems TaqManR Array Rodent MicroRNA.

Data set [7] has as its system mammary tumors. In words: Mammary tumorigenesis in F1 rats exposed to E2 in utero (FIG. 7). Particulars: F1 generation exposed in utero vs controls. Format: in vivo.
The test system of data set [8] is mammary gland. The experiment in a line: Mammary gland morphology and TEB number after maternal E2 or high fat diet (FIG. 8, 11). It counts as in vivo, rats. From the text: exposures during pregnancy: […] Statistical analysis was done using ANOVA followed by between group comparisons using Tukey test. […] TEBs are the sites which give rise to malignant mammary tumors in rats; similar structures in the human breast-terminal ductal lobular units-give rise to 90% of human breast cancers.

For data set [9], the system named is MCF-7 breast cancer cells. As to conditions: MCF-7 cells; cited from earlier work.
Data set [10] has as its system mammary tumors. The experiment in a line: MPA/DMBA-induced mammary tumorigenesis in mice exposed in utero to EE2 or GEN, with or without adult HDAC+DNMT inhibitors. The protocol: Time pregnant C57BL/6 female mice were obtained from Harlan (Harlan-Teclad, USA) on gestation day 6, and were randomly assigned into three groups on the following day (gestation day 7). The basic diet formulation in the study was a semi-purified AIN93G (the American Institute of Nutrition) modified to replace soy oil for corn oil; all the diets of the three treatment groups were also purchased from Harlan. The diets were isocaloric, as ethinyl estradiol (EE2) or genistein (GEN) were added in the diet at the expense of comstarch. Additions to the basic diet were as follows: 1) EE2 0.1 ppm, and 2) GEN 500 ppm. EE2 was purchased from Sigma Chemicals (St. Louis, Mo., USA), and GEN was a gift from Dr. William Helferich (University of Illinois, Urbana, Ill., USA).
The pregnant dams were fed these diets until the day of the delivery of their pups (Post Natal Day 0, PND 0). Starting on PND 0, all mice were fed the control diet until the end of the study. Female mice born from the dams fed with the different above mentioned diets were used in the subsequent studies. For study outline, see FIG. 12. Animals were housed in a temperature- and humidity-controlled room under a 12-hour light-dark cycle. All animal procedures were approved by the Georgetown University Animal Care and Use Committee, and the experiments were performed following the National Institutes of Health guidelines for the proper and humane use of animals in biomedical research.
Mammary tumors were induced by administration of a subcutaneous injection of Medroxyprogesterone Acetate (MPA) to mice at 6 weeks of age, followed by administration of 1 mg 7,12-dimethylbenz(a)anthracene (DMBA) (Sigma, St. Louis, Mo.) weekly for four weeks (weeks 7, 8, 9, 10) (23). The carcinogen was dissolved in corn oil and administered by oral gavage in a volume of ca. 0.1 ml.
One week after the last dose of DMBA was administered, some of the mice were started on hydralazine (5 mg/kg/day) and valproic acid treatments (1.16 g/kg/day) treatments.
The two compounds were given in a drinking water, which was prepared fresh twice a week. The doses were chosen based on the literature (24-26). The number of animals in each group is as follows: Control n=18, Control given HDAC+DNMT inhibitors n=9, EE2 n=9, EE2 given HDAC+DNMT inhibitors n=6, GEN n=14, and GEN given HDAC+DNMT inhibitors n=8.
Mice were examined for mammary tumors by palpation once per week. Tumor growth was monitored for 16 weeks after the last dose of DMBA administration. During the follow-up, animals in which tumor burden approximated 10% of total body weight were euthanized, as required by the ethical guidelines of our institution. All surviving animals were sacrificed at that point for sample collection. The end-points for tumor data analysis were (i) latency to tumor appearance, (ii) the number of animals with tumors (tumor incidence), and (iii) the cumulative tumor area (tumor burden). The latter was achieved by adding the total tumor area per group each week and dividing it with the number of mice in the group.
(§2) Mammary tumor latency was compared with the final tumor burden in utero EE2 and GEN exposed mice to control mice, and in utero EE2 and GEN exposed mice to control mice exposed to HDAC+DNMT inhibitors separately; analysis was done using one-way ANOVA. Cumulative tumor burden during 16 weeks of tumor monitoring in the three groups, separately in those mice not given HDAC+DNMT inhibitors and those treated with the epigenetic drugs, was analysed using repeated measures one-way ANOVA. Log rank analysis was performed to compare mammary tumor incidence in the control and in utero EE2 and GEN exposed mice, again separately in those mice not given HDAC+DNMT inhibitors and those treated with the epigenetic drugs. Data for changes in DNMT1 expression among the groups in the mammary glands and tumors were assessed using two-way ANOVA, followed by Fisher LSD test

The next data set concerns DNMT1. In words: DNMT1 mRNA expression (qRT-PCR) in mouse mammary glands and tumors. As to conditions: in utero exposure vs control mice. Format: in vivo.
Text: Total RNA was extracted using an RNeasy lipid mini kit (Qiagen, CA), according to manufacturer's instructions. One […] of total RNA per sample was used as a template for oligo-dT primed cDNA synthesis with a Supterscript reverse transcriptase, using Taqman Reverse Transcription kit (Applied Biosystems, CA). The cDNA samples served then as templates for quantitative real time PCR analysis with specific primers for the target gene using QuantiTect SYBR green PCR kit (Qiagen Inc., Valencia, Calif.) and an ABI Prism 7900 Sequence Detection System. Each sample was run in triplicate on a 384-well plate, and the qPCR run was repeated twice. The Ct values were averaged from the triplicates for each sample. To normalize the target gene expression the ratio to control RNA was calculated, i.e. the averages of the Ct triplicates from the Dnmt1 gene were divided by the average of the triplicates from the 18S gene. To determine the fold change of the target gene expression the results are presented as 2^ΔCt, where ΔCt=CT^target−Ct^18S.
The primer sequences for m18S rRNA were as previously published by Wang et al. (27).
as §2

A short description of data set [11]: Body weight and growth of in utero exposed pups. Particulars: in utero exposure. It counts as in vivo, C57BL/6 mice.
Text: as §1

Take `CC(C)(c1ccc(O)cc1)c1ccc(O)cc1` [BPA, Bisphenol A]: the “puberty onset / vaginal opening” value in data set [1] is “no effect”. Moreover, in the data set on mammary gland [2], the “total epithelial area of the glands” value is listed as “significantly increased”. Also, the “body weight or mammary epithelial development” value in [3] is “No significant differences”. The “cumulative tumor burden compared to the group exposed to control diet in utero” value in the data set on mammary tumors [4] (C57BL/6, mouse, in vivo) is ~1.5 times. Further, the “mammary tumorigenesis (onset of tumor growth and cumulative tumor burden)” value in the data set with mammary tumors [4] (mouse, in vivo) is reported as “Enhanced mammary tumorigenesis”.

For the molecule `C[C@]12CC[C@@H]3c4ccc(O)cc4CC[C@H]3[C@@H]1CC[C@@H]2O` [E2, estradiol], the “Fold down-regulated in E2 group” value in the data set on PcGTs (Actn1, alpha 1 actin) is given as −5.63 (p < 0.03) Fold; in the data set with PcGTs (Ccl2, chemokine (C-C motif) ligand 2), −1.81 (0.00) Fold; with PcGTs (Ckm, muscle creatine kinase) it was −7.68 (p < 0.01) Fold; with PcGTs (H19/Pro2605, H19fetal liver mRNA (imprinted gene)) it was −3.28 (p < 0.03) Fold; in the data set on PcGTs (Myh13, heavy polypeptide 13 myosin), −6.08 (p < 0.01) Fold; with PcGTs (Myl2, light polypeptide 2 myosin) it was −10.19 (p < 0.02) Fold. Moreover, the “Fold down-regulated in E2 group” value with PcGTs (Pvnlb, parvalbumin) was −8.64 (p < 0.03) Fold. For the same molecule, the “Fold up-regulated in E2 group” value with PcGTs (Hmgcs2, 3-hydroxy-3-methylglutaryl-Coenzyme A synthase 2) is recorded as 2.46 (p < 0.00) Fold; in the data set with PcGTs (Lep, Leptin), 1.59 (p < 0.02) Fold; in the data set on PcGTs (Pdk4, puruvate dehydrogenase kinase isoenzyme 4), 1.82 (p < 0.02) Fold. Moreover, the “acquired resistance to TAM” value in the data set with mammary tumors [5] is 50%. For the same molecule, the “expression of ER-a” value in data set [6] was “up-regulated”. In addition, in the data set with mammary tumors [7], the Mammary tumor incidence entry is recorded as “higher”. For the same molecule, the total tumor burden result in the data set with mammary tumors [7] is “also higher”. Also, the tumor multiplicity result with mammary tumors [7] is listed as “also higher”. Further, in the data set on mammary gland [8] (1st generation offspring, postnatal day 21), the “number of TEBs” value was “increased”. Moreover, in the data set on mammary gland [8] (21-day-old rats exposed to 10 μg in utero vs control rats), the “mammary gland morphology (parenchyma, TEBs, ductal elongation, size)” value was “contain a larger parenchyma and more TEBs, exhibit more advanced ductal elongation, and are larger”. Moreover, in [9], the “expression of the same miRNAs” value is recorded as “down-regulated”.

Turning to `O=c1c(-c2ccc(O)cc2)coc2cc(O)cc(O)c12` [GEN, Genistein], the mammary tumorigenesis result in the data set on mammary tumors [10] (in utero exposed offspring compared to the controls) was “increased mammary tumorigenesis”. Besides, the “Latency for first tumor to develop” value in the data set with mammary tumors [10] (in utero exposure (EE2 0.1 ppm or GEN 500 ppm in dam's diet) vs control mice) is given as “significantly shorter”. Further, the Mammary tumor incidence entry in the data set with mammary tumors [10] (in utero exposure vs control mice) is “significantly higher”. Moreover, the “Final tumor burden per mouse” value with mammary tumors [10] (in utero exposure vs controls) is on record as “significantly higher”. Besides, the “DNMT1 expression in mammary tumors” value in the data set with DNMT1 is reported as “significantly lower”. Moreover, the “expression of DNMT1 in mammary glands” value with DNMT1 is recorded as “a similar increase; also recorded: an increase in DNMT1 expression; also recorded: persistent up-regulation”. The “birthweight, or postnatal weight development” value in [11] is “did not alter”. In addition, the “puberty onset / vaginal opening” value in [1] was “delayed vaginal opening”; in [1] (listed as genistein), “delayed puberty onset”. In the data set with mammary gland [2], the “total epithelial area of the glands” value is given as “nearly significantly increased”. In addition, the “body weight or mammary epithelial development” value in data set [3] was “No significant differences”. Further, the “cumulative tumor burden compared to the group exposed to control diet in utero” value in the data set on mammary tumors [4] (in utero exposure) was “approximately four”. For the same molecule, the “mammary tumorigenesis (onset of tumor growth and cumulative tumor burden)” value in the data set on mammary tumors [4] (in utero exposure compared to controls) is “Enhanced mammary tumorigenesis”.
